Test results taken from patent US8618075B2, “Certain compounds, compositions and methods” (Eisai Inc., priority 2007, dated 2013).
Blank lines part the entries; values can stand above or below the molecule they belong to.

How the values were obtained:
[1] = system: L1210 mouse lymphoma model; assay: Decitabine induced survival in the L1210 survival model; assay type: in vivo; details: for Mean Liver wts. (g) ± SD / Mean Spleen wts. (g) ± SD: on autopsy; for % ILS (Increased Life Span): vs vehicle group; for Survival compared to vehicle control and CDA inhibitor alone: p<0.05
Protocol: 30 CD2F1 6-7 weeks old female mice are randomly separated into 6 groups:
L1210 Intravenous (Lv.) Injection: Prior to experiment, L1210 cells are passed at least 3 times in CD2F1 female mice. The mice are injected intraperitoneally (i.p.) with L1210 ascites one prior week to sacrifice using CO2. Each mouse is placed on its back, its belly surface is cleaned with alcohol wipes and a small incision is made into its peritoneal cavity. 2 ml of ice cold 2.1% bovine serum albumin (BSA) in saline is injected into the cavity. Fluid is withdrawn from the cavity, transferred with an 18G 3 cc syringe into a clean sterile tube, and kept on ice. The fluid is diluted 1:10 in 2.1% BSA in saline and one drop of zap-o-globin is added to 2 ml of diluted ascites. Diluted ascites (dilute 1:10 again) are counted on a hematocytomer and the number of cells/ml is calculated. A stock of ascites in BSA solution is diluted to 1×10^4 cells/0.1 ml. Mice are injected with 0.1 ml of cell solution with a 27G needle.
Decitabine is prepared at a 1 mg/ml stock in PBS and diluted appropriately to achieve a 0.01 and 0.02 mg/ml dosing solution.
Dosing Scheme: Decitabine is prepared fresh twice a day. All dose solutions are stored on ice while dosing. Mice are dosed i.p. or orally (p.o.) twice a day (8 hours apart) for 4 consecutive days.
Survival and Autopsy: Mice are observed for survival and weighed daily (Monday to Friday) for the duration of the study (30 days). Dead mice are autopsied and observed for the presence of tumors in organs. Tumor deaths are determined by liver weights greater than 1.6 g and spleen weights greater than 150 mg as per Covey et al., Eur. J. Cancer Oncol. 1985.

[2] = system: A2780 human ovarian cancer xenograft; assay: Gemcitabine-induced reduction of tumor volume in the mouse A2780 human ovarian cancer xenograft model; assay type: in vivo
Protocol: Female NCr nu/nu 5-6 week old mice are implanted subcutaneously with 30 to 60 mg tumor fragments. On day 11 when the tumors are approximately 200 mm^3, treatment starts as described in Table 5.
Tumor volume is followed throughout the experiment. Tumor volume is measured three times weekly. Tumor burden (mg=mm^3) is calculated from caliper measurements by the formula for the volume of a prolate ellipsoid (L×W^2)/2 where L and W are the respective orthogonal length and width measurements (mm).
The primary endpoints used to evaluate efficacy in the A2780 model are complete and partial tumor regressions, tumor growth delay and the number of tumor free survivors at the end of the study. A complete response (CR) is defined as a decrease in tumor size to an undetectable size (<50mm^3). A partial response (PR) is defined as >50% decrease in tumor mass form starting tumor size. A tumor that achieves a CR or PR during the study but starts to grow again is still considered a CR or PR. Tumor free survival (TFS) at the end of the study would be no detectable tumor (<50 mm^3) at study termination (day 74). Tumor growth delay (TGD) is defined in this experiment as the median number of days for the treatment group compared to the control group to reach 750 mm^3.

[3] = Stability in acid solution by 1H NMR spectroscopy; assay type: physicochemical; details: D2O + one drop deuterated TFA, 27° C.
Protocol: Tetrahydrouridine (THU, 5 mg) is dissolved in D2O (0.75 mL). To this same sample is added one drop of deuterated TFA followed by an immediate ^1HNMR spectrum (FIG. 10). Even at this earliest time point, the peak at 5.4 ppm (˜10% conversion by integration) is indicative of the ring expansion to the TH-pyranose. After 4 hours, the TH-pyranose is more prevalent indicating about 60% conversion. At 72 hours, the conversion is almost entirely complete (>80%).
To this same sample is added one drop of deuterated TFA followed by an immediate ^1HNMR spectrum (FIG. 12). After the first time point, the only notable change is the epimerization of the aminal which is noted by the extra peaks at 5.92 and 5.93. After 4 hours and 72 hours (FIG. 13), there are no other notable changes in the spectra (D2O, 300 MHz, 27° C.).

[4] = Group 2: Compound 1 10 mg/kg p.o. alone
[5] = Group 2: Compound 1 10 mg/kg p.o. x2 for 4 days alone
[6] = Group 4: Compound 1 1 mg/kg + 0.1 mg/kg decitabine p.o.
[7] = Group 5: Compound 1 10 mg/kg + 0.1 mg/kg decitabine p.o.
[8] = 30 mg/kg Gemcitabine PO + Compound 1 10 mg/kg PO q3dx4
[9] = CDA inhibitor plus decitabine 0.1 mg/kg
[10] = 10 mg/kg Gemcitabine PO q3dx4 alone
[11] = 30 mg/kg Gemcitabine PO q3dx4 alone
[12] = Group 3: 0.1 mg/kg decitabine p.o. alone

Structure (SMILES): O=C1NC(O)CCN1C1O[C@H](CO)[C@@H](O)C1(F)F (some centres unmarked) [Compound 1, 2′2′-DiFluoro-TetraHydroUridine]
Mean Liver wts. (g) ± SD [1, 4]: 1.99 ± 0.22 g
Mean Spleen wts. (g) ± SD [1, 4]: 0.39 ± 0.07 g
Mean Survival (days) ± SD [1, 5]: 7.40 ± 0.55 days
% ILS (Increased Life Span) [1, 5]: 0.00%
Mean Survival (days) ± SD ([1]; Group 4: Compound 1 1 mg/kg + 0.1 mg/kg decitabine p.o. x2 for 4 days): 12.8 ± 0.45 days
Mean Liver wts. (g) ± SD [1, 6]: 2.03 ± 0.08 g
Mean Spleen wts. (g) ± SD [1, 6]: 0.29 ± 0.03 g
% ILS (Increased Life Span) [1, 6]: 72.97%
Mean Survival (days) ± SD ([1]; Group 5: Compound 1 10 mg/kg + 0.1 mg/kg decitabine p.o. x2 for 4 days): 14.2 ± 0.45 days
Mean Liver wts. (g) ± SD [1, 7]: 2.02 ± 0.27 g
Mean Spleen wts. (g) ± SD [1, 7]: 0.29 ± 0.07 g
% ILS (Increased Life Span) [1, 7]: 91.89%
TGD (tumor growth delay) ([2]; 10 mg/kg Compound 1 PO q3dx4 alone, median days to reach 750 mm^3 vs control): 0.4 days
Tumors displaying CR ([2]; 10 mg/kg Gemcitabine PO + Compound 1 10 mg/kg PO q3dx4): 75%
TGD (tumor growth delay) ([2]; 10 mg/kg Gemcitabine PO + Compound 1 10 mg/kg PO q3dx4, p<0.05 vs 10 mg/kg Gem alone): 19.2 days
CR [2, 8]: 100%
Incidence of TFS at day 74 [2, 8]: 50%
TGD (tumor growth delay) ([2]; 30 mg/kg Gemcitabine PO + Compound 1 10 mg/kg PO q3dx4, p<0.05 vs 30 mg/kg Gem alone): >57 days

Structure (SMILES): O=C1N[C@H](O)CCN1C1O[C@H](CO)[C@@H](O)C1(F)F (single isomer, unassigned) [Compound 1a, 2′2′-DiFluoro-TetraHydroUridine]
Extending survival compared to the lower doses ([1]; 10 mg/kg Compound 1a in combination with DAC): more effective
Survival compared to vehicle control and CDA inhibitor alone [1, 9]: live longer
Pyranose formation in acid ([3]; up to 72 hours, only epimerization of the aminal noted): no pyranose formation occurs

Structure (SMILES): Nc1ccn([C@@H]2O[C@H](CO)[C@@H](O)C2(F)F)c(=O)n1 [Gemcitabine, reference compound]
Complete responses (CR) [2, 10]: no CRs
Partial responses (PR) [2, 10]: no
Tumor free survivors (TFS) at day 74 [2, 10]: no
TGD (tumor growth delay) ([2]; 10 mg/kg Gemcitabine PO q3dx4 alone, not statistically significant): 6.1 days
TGD (tumor growth delay) ([2]; 30 mg/kg Gemcitabine PO q3dx4 (MTD) alone, p<0.05 vs untreated control): 22 days
CRs [2, 11]: 63%
Tumor free survivors (TFS) at day 74 [2, 11]: no TFS

Structure (SMILES): O=C1N[C@H](O)CCN1C1O[C@H](CO)[C@@H](O)[C@H]1F (stereo partly drawn) [Compound 3a, 2′(S)-fluoro-2′deoxy-tetrahydrouridine]
Survival compared to vehicle control and CDA inhibitor alone [1, 9]: live longer

Structure (SMILES): Nc1ncn([C@H]2C[C@H](O)[C@@H](CO)O2)c(=O)n1 [Decitabine, 5-Aza-2′-deoxycytidine, reference compound]
Mean Liver wts. (g) ± SD [1, 12]: 2.05 ± 0.17 g
Mean Spleen wts. (g) ± SD [1, 12]: 0.33 ± 0.06 g
% ILS (Increased Life Span) [1, 12]: 43.24%
Mean Survival (days) ± SD ([1]; Group 3: 0.1 mg/kg decitabine p.o. x2 for 4 days alone): 10.6 ± 0.56 days
Survival compared to vehicle control and CDA inhibitor alone ([1]; decitabine 0.1 mg/kg alone): live longer
Efficacy (survival) compared to 0.1 mg/kg decitabine i.p. ([1]; decitabine 0.1 mg/kg p.o., not significantly different, p=0.052): less effective

Conversion to TH-pyranose ([3]; after 4 hours): about 60%
Conversion to TH-pyranose ([3]; at 72 hours): > 80%
Conversion to TH-pyranose (by integration) ([3]; immediate spectrum): ~10%
Structure (SMILES): O=C1NC(O)CCN1[C@@H]1O[C@H](CO)[C@@H](O)[C@H]1O (some centres unmarked) [THU, Tetrahydrouridine]
